{
  "source": "patent US20240360178A1",
  "about": "“MACROCYCLIC IMMUNOMODULATORS” (Bristol-Myers Squibb Company, priority 2021, published 2024)",
  "biological_target": "T1, human PD-1 (Jurkat-PD-1 cells) / PE-labeled human PD-L1-Ig (Homo sapiens, UniProt Q15116)",
  "T1 construct": "expressed in transfected cells; host or cells: Jurkat cell line over-expressing human PD-1",
  "T1 sequence (Q15116 25-288)": "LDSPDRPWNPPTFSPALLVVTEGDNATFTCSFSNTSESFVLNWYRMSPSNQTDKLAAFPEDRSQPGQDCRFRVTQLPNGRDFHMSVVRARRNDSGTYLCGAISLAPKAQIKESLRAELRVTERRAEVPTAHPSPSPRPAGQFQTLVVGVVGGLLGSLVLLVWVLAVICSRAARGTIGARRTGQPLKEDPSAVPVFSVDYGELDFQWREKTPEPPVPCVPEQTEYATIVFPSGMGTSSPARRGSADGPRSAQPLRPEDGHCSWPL",
  "test": "Jurkat-PD-1 Cell Binding High-Content Screening Assay (CBA); Jurkat hPD1-PDL1 assay",
  "conditions": "Jurkat cell line over-expressing human PD-1; PE-labeled PD-L1-Ig 20 nM final; compound incubated 2 hours at 37° C.; read-out: Jurkat HPD1-PDL1 IC50",
  "how_it_was_run": "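Cell binding by imaging: Jurkat line stably over-expressing human PD-1, compound pre-exposure 2 h at 37° C, PE-conjugated PD-L1-Ig 20 nM final, medium DMEM containing 10% FCS.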",
  "note": "Positions of bridges follow the written chain, without caps; N, C: chain ends. Non-standard residues stand in square brackets, D forms with d. Residues, ends and D or L forms follow the SMILES beside them. Phe(4-COOH) = N[C@@H](Cc1ccc(C(=O)O)cc1)C(=O)O; Bip = N[C@@H](Cc1ccc(-c2ccccc2)cc1)C(=O)O; Phe(3-CN) = N#Cc1cccc(C[C@H](N)C(=O)O)c1; Phe(3-OMe) = COc1cccc(C[C@H](N)C(=O)O)c1; Phe(3-F) = N[C@@H](Cc1cccc(F)c1)C(=O)O; Phe(2-Me) = Cc1ccccc1C[C@H](N)C(=O)O; Val(3-OH) = CC(C)(O)[C@H](N)C(=O)O; NMeF = CN[C@@H](Cc1ccccc1)C(=O)O; hPhe = N[C@@H](CCc1ccccc1)C(=O)O; 4Pal = N[C@@H](Cc1ccncc1)C(=O)O; Cha = N[C@@H](CC1CCCCC1)C(=O)O; NMeA = CN[C@@H](C)C(=O)O; Orn = NCCC[C@H](N)C(=O)O; Dab = NCC[C@H](N)C(=O)O; Sar = CNCC(=O)O",
  "data": [
    {"smiles": "CC(C)C[C@@H]1NC(=O)[C@H](Cc2c[nH]c3ccccc23)NC(=O)[C@H](CC(=O)O)NC(=O)[C@H](Cc2ccc(O)cc2)NC(=O)[C@H](Cc2ccccc2)NC(=O)CSC[C@@H](C(=O)NCC(N)=O)NC(=O)[C@H](CO)NC(=O)[C@H](C(C)C)NC(=O)[C@H](CC(C)C)NC(=O)[C@H](CCC(N)=O)NC(=O)CN(C)C(=O)[C@H](C)N(C)C(=O)[C@H](C(C)C)NC(=O)[C@H](Cc2ccc(-c3ccccc3)cc2)NC1=O", "note": "[Example 1072] ({CH2CO}-FYDWL[Bip]V[NMeA][Sar]QLVSCG-NH2; thioether N-14)", "values": [
      {"measurement": "IC50", "value": 0.19, "unit": "µM"}
    ]},
    {"smiles": "COc1ccc(C[C@@H]2NC(=O)CSC[C@@H](C(=O)NCC(N)=O)NC(=O)[C@H](CO)NC(=O)[C@H](C(C)C)NC(=O)[C@H](CC(C)C)NC(=O)[C@H](CC(N)=O)NC(=O)CN(C)C(=O)[C@H](C)N(C)C(=O)[C@H](C(C)C)NC(=O)[C@H](Cc3ccc(-c4ccccc4)cc3)NC(=O)[C@H](CC(C)C)NC(=O)[C@H](Cc3c[nH]c4ccccc34)NC(=O)[C@H](CC(=O)O)NC(=O)[C@H](Cc3ccc(O)cc3)NC2=O)cc1", "note": "[Example 1138] ({CH2CO}-Y(Me)YDWL[Bip]V[NMeA][Sar]NLVSCG-NH2; thioether N-14)", "values": [
      {"measurement": "IC50", "value": 0.57, "unit": "µM"}
    ]},
    {"smiles": "Cc1ccccc1C[C@@H]1NC(=O)[C@H](CC(=O)O)NC(=O)[C@H](Cc2ccc(O)cc2)NC(=O)[C@H](Cc2ccccc2)NC(=O)CSC[C@@H](C(=O)N[C@@H](C)C(N)=O)NC(=O)[C@H](CO)NC(=O)[C@H](C(C)C)NC(=O)[C@H](CC(C)C)NC(=O)[C@H](CC(N)=O)NC(=O)CN(C)C(=O)[C@H](C)N(C)C(=O)[C@H](C(C)C)NC(=O)[C@H](Cc2ccc(-c3ccccc3)cc2)NC(=O)[C@H](CC(C)C)NC1=O", "note": "[Example 1172] ({CH2CO}-FYD[Phe(2-Me)]L[Bip]V[NMeA][Sar]NLVSCA-NH2; thioether N-14)", "values": [
      {"measurement": "IC50", "value": 0.95, "unit": "µM"}
    ]},
    {"smiles": "CC(C)C[C@@H]1NC(=O)[C@H](Cc2c[nH]c3ccccc23)NC(=O)[C@H](CC(=O)O)NC(=O)[C@H](Cc2ccc(O)cc2)NC(=O)[C@H](Cc2ccccc2)NC(=O)CSC[C@@H](C(=O)NCC(N)=O)NC(=O)[C@H](C)NC(=O)[C@H](C(C)C)NC(=O)[C@H](CC(C)C)NC(=O)[C@H](CC(N)=O)NC(=O)CN(C)C(=O)[C@H](C)N(C)C(=O)[C@H](C(C)C)NC(=O)[C@H](Cc2ccc(-c3ccccc3)cc2)NC1=O", "note": "[Example 1110] ({CH2CO}-FYDWL[Bip]V[NMeA][Sar]NLVACG-NH2; thioether N-14)", "values": [
      {"measurement": "IC50", "value": 0.35, "unit": "µM"}
    ]},
    {"smiles": "CC(C)C[C@@H]1NC(=O)[C@H](Cc2c[nH]c3ccccc23)NC(=O)[C@H](CC(=O)O)NC(=O)[C@H](Cc2ccc(O)cc2)NC(=O)[C@H](CCc2ccccc2)NC(=O)CSC[C@@H](C(=O)N[C@@H](C)C(N)=O)NC(=O)[C@H](CO)NC(=O)[C@H](C(C)C)NC(=O)[C@H](CC(C)C)NC(=O)[C@H](CC(N)=O)NC(=O)CN(C)C(=O)[C@H](C)N(C)C(=O)[C@H](C(C)C)NC(=O)[C@H](Cc2ccc(-c3ccccc3)cc2)NC1=O", "note": "[Example 1070] ({CH2CO}-[hPhe]YDWL[Bip]V[NMeA][Sar]NLVSCA-NH2; thioether N-14)", "values": [
      {"measurement": "IC50", "value": 0.18, "unit": "µM"}
    ]},
    {"smiles": "COc1cccc(C[C@@H]2NC(=O)[C@H](Cc3ccccc3)NC(=O)CSC[C@@H](C(=O)N[C@@H](C)C(N)=O)NC(=O)[C@H](CO)NC(=O)[C@H](C(C)C)NC(=O)[C@H](CC(C)C)NC(=O)[C@H](CC(N)=O)NC(=O)[C@H]3CCCN3C(=O)[C@H](C)N(C)C(=O)[C@H](C(C)C)NC(=O)[C@H](Cc3ccc(-c4ccccc4)cc3)NC(=O)[C@H](CC(C)C)NC(=O)[C@H](Cc3c[nH]c4ccccc34)NC(=O)[C@H](CC(=O)O)NC2=O)c1", "note": "[Example 1055] ({CH2CO}-F[Phe(3-OMe)]DWL[Bip]V[NMeA][dP]NLVSCA-NH2; thioether N-14)", "values": [
      {"measurement": "IC50", "value": 0.12, "unit": "µM"}
    ]},
    {"smiles": "CC(C)C[C@@H]1NC(=O)[C@H](Cc2c[nH]c3ccccc23)NC(=O)[C@H](CC(=O)O)NC(=O)[C@H](Cc2ccc(O)cc2)NC(=O)[C@H](Cc2ccccc2)NC(=O)CSC[C@@H](C(=O)NCC(N)=O)NC(=O)[C@H](CO)NC(=O)[C@H](C(C)C)NC(=O)[C@H](CC(C)C)NC(=O)[C@H](CC(N)=O)NC(=O)[C@H]2CCCN2C(=O)[C@H](C)N(C)C(=O)[C@H](C(C)C)NC(=O)[C@H](Cc2ccc(-c3ccccc3)cc2)NC1=O", "note": "[Example 1035] ({CH2CO}-FYDWL[Bip]V[NMeA][dP]NLVSCG-NH2; thioether N-14)", "values": [
      {"measurement": "IC50", "value": 0.06, "unit": "µM"}
    ]},
    {"smiles": "CC(C)C[C@@H]1NC(=O)[C@H](Cc2c[nH]c3ccccc23)NC(=O)[C@H](CC(=O)O)NC(=O)[C@H](Cc2ccc(C(=O)O)cc2)NC(=O)[C@H](Cc2cnc[nH]2)NC(=O)CSC[C@@H](C(=O)N[C@@H](C)C(N)=O)NC(=O)[C@H](CO)NC(=O)[C@H](C(C)C)NC(=O)[C@H](CC(C)C)NC(=O)[C@H](CC(N)=O)NC(=O)[C@H]2CCCN2C(=O)[C@H](C)N(C)C(=O)[C@H](C(C)C)NC(=O)[C@H](Cc2ccc(-c3ccccc3)cc2)NC1=O", "note": "[Example 1046] ({CH2CO}-H[Phe(4-COOH)]DWL[Bip]V[NMeA][dP]NLVSCA-NH2; thioether N-14)", "values": [
      {"measurement": "IC50", "value": 0.08, "unit": "µM"}
    ]},
    {"smiles": "CC(C)C[C@@H]1NC(=O)[C@H](C)NC(=O)CN(C)C(=O)[C@H](C)N(C)C(=O)[C@H](C(C)C)NC(=O)[C@H](Cc2ccc(-c3ccccc3)cc2)NC(=O)[C@H](CC(C)C)NC(=O)[C@H](Cc2c[nH]c3ccccc23)NC(=O)[C@H](CC(=O)O)NC(=O)[C@H](Cc2ccc(O)cc2)NC(=O)[C@H](Cc2ccccc2)NC(=O)CSC[C@@H](C(=O)N[C@@H](C)C(N)=O)NC(=O)[C@H](CO)NC(=O)[C@H](C(C)C)NC1=O", "note": "[Example 1158] ({CH2CO}-FYDWL[Bip]V[NMeA][Sar]ALVSCA-NH2; thioether N-14)", "values": [
      {"measurement": "IC50", "value": 0.84, "unit": "µM"}
    ]},
    {"smiles": "CC(C)C[C@@H]1NC(=O)[C@H](Cc2c[nH]c3ccccc23)NC(=O)[C@H](CC(=O)O)NC(=O)[C@H](Cc2cccc(C#N)c2)NC(=O)[C@H](Cc2ccncc2)NC(=O)CSC[C@@H](C(=O)N[C@@H](CCN)C(N)=O)NC(=O)[C@H](CO)NC(=O)[C@H](C(C)(C)O)NC(=O)[C@H](CC2CCCCC2)NC(=O)[C@H](CCN)NC(=O)[C@H]2CCCN2C(=O)[C@H](C)N(C)C(=O)[C@H](C(C)C)NC(=O)[C@H](Cc2ccc(-c3ccccc3)cc2)NC1=O", "note": "[Example 1183] ({CH2CO}-[4Pal][Phe(3-CN)]DWL[Bip]V[NMeA][dP][Dab][Cha][Val(3-OH)]SC[Dab]-NH2; thioether N-14)", "values": [
      {"measurement": "IC50", "value": 0.04, "unit": "µM"}
    ]},
    {"smiles": "CC(C)C[C@@H]1NC(=O)[C@H](Cc2c[nH]c3ccccc23)NC(=O)[C@H](CC(=O)O)NC(=O)[C@H](Cc2cccc(F)c2)NC(=O)[C@H](Cc2ccccc2)NC(=O)CSC[C@@H](C(=O)N[C@@H](C)C(N)=O)NC(=O)[C@H](CO)NC(=O)[C@H](C(C)C)NC(=O)[C@H](CC(C)C)NC(=O)[C@H](CC(N)=O)NC(=O)[C@H]2CCCN2C(=O)[C@H](C)N(C)C(=O)[C@H](C(C)C)NC(=O)[C@H](Cc2ccc(-c3ccccc3)cc2)NC1=O", "note": "[Example 1047] ({CH2CO}-F[Phe(3-F)]DWL[Bip]V[NMeA][dP]NLVSCA-NH2; thioether N-14)", "values": [
      {"measurement": "IC50", "value": 0.09, "unit": "µM"}
    ]},
    {"smiles": "CC(C)C[C@@H]1NC(=O)[C@H](CCN)NC(=O)[C@H](Cc2ccccc2)N(C)C(=O)[C@H](C)N(C)C(=O)[C@H](CCC(=O)O)NC(=O)[C@H](Cc2ccc(-c3ccccc3)cc2)NC(=O)[C@H](C(C)C)NC(=O)[C@H](Cc2c[nH]c3ccccc23)NC(=O)[C@H](CC(=O)O)NC(=O)[C@H](Cc2ccc(O)cc2)NC(=O)[C@H](CC(N)=O)NC(=O)CSC[C@@H](C(=O)N[C@@H](C)C(N)=O)NC(=O)[C@H](CCCN)NC(=O)[C@H](C(C)C)NC1=O", "note": "[Example 1380] ({CH2CO}-NYDWV[Bip]E[NMeA][NMeF][Dab]LV[Orn]CA-NH2; thioether N-14)", "values": [
      {"measurement": "IC50", "value": 0.07, "unit": "µM"}
    ]}
  ]
}
